Measurements reported in PubChem BioAssay (NCI).
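How tested: cells in 96-well plates exposed to compound for 48 hours at five concentrations. Definition used: TGI = concentration required for complete inhibition of growth.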

Columns and labels:
Assay in all cases: inhibition of tumour cell growth, NCI panel, 48 h
DMS 273 small cell lung = system: DMS 273 small cell lung
NCI-H23 lung = system: NCI-H23 lung
SNB-78 CNS = system: SNB-78 CNS
HOP-18 NSCLC = system: HOP-18 NSCLC
OVCAR-3 ovarian = system: OVCAR-3 ovarian
RPMI-8226 leukemia = system: RPMI-8226 leukemia
DLD-1 colon = system: DLD-1 colon
OVCAR-4 ovarian = system: OVCAR-4 ovarian
SNB-19 CNS = system: SNB-19 CNS
U251 CNS = system: U251 CNS
OVCAR-5 ovarian = system: OVCAR-5 ovarian
HT29 colon = system: HT29 colon
MOLT-4 leukemia = system: MOLT-4 leukemia
KM20L2 colon = system: KM20L2 colon
UO-31 renal = system: UO-31 renal
CAKI-1 renal = system: CAKI-1 renal
XF 498 CNS = system: XF 498 CNS
EKVX NSCLC = system: EKVX NSCLC
SNB-75 CNS = system: SNB-75 CNS
SF-539 CNS = system: SF-539 CNS
K-562 leukemia = system: K-562 leukemia
ACHN renal = system: ACHN renal
MALME-3M melanoma = system: MALME-3M melanoma
SF-268 CNS = system: SF-268 CNS
UACC-257 melanoma = system: UACC-257 melanoma
HL-60(TB) leukemia = system: HL-60(TB) leukemia
TK-10 renal = system: TK-10 renal
KM12 colon = system: KM12 colon
HCT-15 colon = system: HCT-15 colon
SK-MEL-28 melanoma = system: SK-MEL-28 melanoma
M14 melanoma = system: M14 melanoma
LOX IMVI melanoma = system: LOX IMVI melanoma
LXFL 529 NSCLC = system: LXFL 529 NSCLC
HOP-62 NSCLC = system: HOP-62 NSCLC
COLO 205 colon = system: COLO 205 colon
NCI-H522 lung = system: NCI-H522 lung
UACC-62 melanoma = system: UACC-62 melanoma
SK-MEL-5 melanoma = system: SK-MEL-5 melanoma
SK-OV-3 ovarian = system: SK-OV-3 ovarian
786-0 renal = system: 786-0 renal
M19-MEL melanoma = system: M19-MEL melanoma
A549 NSCLC = system: A549 NSCLC
IGROV1 ovarian = system: IGROV1 ovarian
HCT-116 colon = system: HCT-116 colon
SF-295 CNS = system: SF-295 CNS
OVCAR-8 ovarian = system: OVCAR-8 ovarian
SN12C renal = system: SN12C renal
CCRF-CEM leukemia = system: CCRF-CEM leukemia
SK-MEL-2 melanoma = system: SK-MEL-2 melanoma
DMS 114 small cell lung = system: DMS 114 small cell lung
NCI-H460 lung = system: NCI-H460 lung
HOP-92 NSCLC = system: HOP-92 NSCLC
A498 renal = system: A498 renal
SW-620 colon = system: SW-620 colon
HCC-2998 colon = system: HCC-2998 colon
RXF 393 renal = system: RXF 393 renal
NCI-H226 lung = system: NCI-H226 lung
SR leukemia = system: SR leukemia

Structure (SMILES): CC1OC(OC2C(Oc3cc(O)c4c(=O)cc(-c5ccc(O)cc5)oc4c3)OC(CO)C(O)C2O)C(O)C(O)C1O (stereo not drawn)
- TGI (DMS 273 small cell lung): > 100 µM
- TGI (NCI-H23 lung): > 100 µM
- TGI (SNB-78 CNS): > 100 µM
- TGI (HOP-18 NSCLC): > 100 µM
- TGI (OVCAR-3 ovarian): > 100 µM
- TGI (RPMI-8226 leukemia): > 100 µM
- TGI (DLD-1 colon): > 100 µM
- TGI (OVCAR-4 ovarian): > 100 µM
- TGI (SNB-19 CNS): > 100 µM
- TGI (U251 CNS): > 100 µM
- TGI (OVCAR-5 ovarian): > 100 µM
- TGI (HT29 colon): > 100 µM
- TGI (MOLT-4 leukemia): > 100 µM
- TGI (KM20L2 colon): > 100 µM
- TGI (UO-31 renal): > 100 µM
- TGI (CAKI-1 renal): > 100 µM
- TGI (XF 498 CNS): > 100 µM
- TGI (EKVX NSCLC): > 100 µM
- TGI (SNB-75 CNS): > 100 µM
- TGI (SF-539 CNS): > 100 µM
- TGI (K-562 leukemia): > 100 µM
- TGI (ACHN renal): > 100 µM
- TGI (MALME-3M melanoma): > 100 µM
- TGI (SF-268 CNS): > 100 µM
- TGI (UACC-257 melanoma): > 100 µM
- TGI (HL-60(TB) leukemia): > 100 µM
- TGI (TK-10 renal): > 100 µM
- TGI (KM12 colon): > 100 µM
- TGI (HCT-15 colon): > 100 µM
- TGI (SK-MEL-28 melanoma): > 100 µM
- TGI (M14 melanoma): > 100 µM
- TGI (LOX IMVI melanoma): > 100 µM
- TGI (LXFL 529 NSCLC): > 100 µM
- TGI (HOP-62 NSCLC): > 100 µM
- TGI (COLO 205 colon): > 100 µM
- TGI (NCI-H522 lung): > 100 µM
- TGI (UACC-62 melanoma): > 100 µM
- TGI (SK-MEL-5 melanoma): > 100 µM
- TGI (SK-OV-3 ovarian): > 100 µM
- TGI (786-0 renal): > 100 µM
- TGI (M19-MEL melanoma): > 100 µM
- TGI (A549 NSCLC): > 100 µM
- TGI (IGROV1 ovarian): > 100 µM
- TGI (HCT-116 colon): > 100 µM
- TGI (SF-295 CNS): > 100 µM
- TGI (OVCAR-8 ovarian): > 100 µM
- TGI (SN12C renal): > 100 µM
- TGI (CCRF-CEM leukemia): > 100 µM
- TGI (SK-MEL-2 melanoma): > 100 µM
- TGI (DMS 114 small cell lung): > 100 µM
- TGI (NCI-H460 lung): > 100 µM
- TGI (HOP-92 NSCLC): > 100 µM
- TGI (A498 renal): > 100 µM

Structure (SMILES): CCCN(CCC)C(=O)Cc1c2n(c3ccccc13)Cc1ccccc1-2
- TGI (DMS 273 small cell lung): > 100 µM
- TGI (NCI-H23 lung): > 100 µM
- TGI (SNB-78 CNS): > 100 µM
- TGI (HOP-18 NSCLC): > 100 µM
- TGI (OVCAR-3 ovarian): > 100 µM
- TGI (RPMI-8226 leukemia): > 100 µM
- TGI (DLD-1 colon): > 100 µM
- TGI (OVCAR-4 ovarian): > 100 µM
- TGI (SNB-19 CNS): > 100 µM
- TGI (U251 CNS): > 100 µM
- TGI (HT29 colon): > 100 µM
- TGI (MOLT-4 leukemia): > 100 µM
- TGI (KM20L2 colon): > 100 µM
- TGI (SW-620 colon): > 100 µM
- TGI (UO-31 renal): > 100 µM
- TGI (CAKI-1 renal): > 100 µM
- TGI (HCC-2998 colon): > 100 µM
- TGI (XF 498 CNS): > 100 µM
- TGI (EKVX NSCLC): > 100 µM
- TGI (SNB-75 CNS): > 100 µM
- TGI (SF-539 CNS): > 100 µM
- TGI (RXF 393 renal): > 100 µM
- TGI (K-562 leukemia): > 100 µM
- TGI (ACHN renal): > 100 µM
- TGI (MALME-3M melanoma): > 100 µM
- TGI (SF-268 CNS): > 100 µM
- TGI (UACC-257 melanoma): > 100 µM
- TGI (HL-60(TB) leukemia): > 100 µM
- TGI (TK-10 renal): > 100 µM
- TGI (KM12 colon): > 100 µM
- TGI (HCT-15 colon): > 100 µM
- TGI (SK-MEL-28 melanoma): > 100 µM
- TGI (M14 melanoma): > 100 µM
- TGI (LOX IMVI melanoma): > 100 µM
- TGI (LXFL 529 NSCLC): > 100 µM
- TGI (HOP-62 NSCLC): > 100 µM
- TGI (COLO 205 colon): > 100 µM
- TGI (NCI-H522 lung): > 100 µM
- TGI (UACC-62 melanoma): > 100 µM
- TGI (SK-MEL-5 melanoma): > 100 µM
- TGI (SK-OV-3 ovarian): > 100 µM
- TGI (786-0 renal): > 100 µM
- TGI (NCI-H226 lung): > 100 µM
- TGI (M19-MEL melanoma): > 100 µM
- TGI (A549 NSCLC): > 100 µM
- TGI (HCT-116 colon): > 100 µM
- TGI (SF-295 CNS): > 100 µM
- TGI (OVCAR-8 ovarian): > 100 µM
- TGI (SR leukemia): > 100 µM
- TGI (SN12C renal): > 100 µM
- TGI (CCRF-CEM leukemia): > 100 µM
- TGI (SK-MEL-2 melanoma): > 100 µM
- TGI (DMS 114 small cell lung): > 100 µM
- TGI (NCI-H460 lung): > 100 µM
- TGI (HOP-92 NSCLC): 57.7 µM
